{"source": "patent US20220387359A1", "about": "“SYNERGISTIC INHIBITORS OF CREB-MEDIATED GENE TRANSCRIPTION” (OREGON HEALTH & SCIENCE UNIVERSITY, priority 2019, published 2022)", "key": {"MDA-MB-231 cells": {"system": "MDA-MB-231 cells", "assay": "cell growth inhibition MTT assay", "assay_type": "cell-based", "experimental": "Then the viable cells were quantified by the MTT reagent. […] The data are presented as mean+SEM. The SEM was from one representative experiment performed in duplicates.\nThe cells were plated in 96-well plates at 1,000 cells/well and allowed to attach to the bottom of the plate for overnight. Then the cells were treated with different concentrations of compounds for 72 h at 37° C. At the end of treatment, the viable cells were determined by incubating cells with MTT reagent (0.5 mg/mL) in the complete tissue culture media for 3 h. Then the media were removed and the formed purple formazan was dissolved in DMSO for quantification by absorbance at 570 nm using a SpectraMax i3 plate reader (Molecular Devices). The percent of growth is defined as 100×(Atreated−Ainitial)/(Acontrol−Ainitial), where Atreated represents absorbance in wells treated with a compound, Ainitial represents the absorbance at time 0, and Acontrol denotes media-treated cells."}, "[1]": {"system": "CREB-mediated gene transcription", "assay": "CREB transcription renilla luciferase reporter assay in HEK 293T cells", "assay_type": "cell-based", "details": "for combination index (CI) in inhibiting CREB-mediated gene transcription: Chou-Talalay; for effect of combination with 666-15 on inhibition of CREB-mediated gene transcription: compound combined with 666-15; for IC50: Homo sapiens", "experimental": "^a The IC50 refers to the concentration needed to inhibit 50% of the CREB-mediated gene transcription in HEK 293T cells using a transcription renilla luciferase reporter assay. The data are presented as mean±standard deviation (SD) of at least two independent experiments, which were performed in triplicates.\nTo test this possibility, we employed a transcription luciferase reporter assay in HEK 293T cells.^22 Briefly, the cells were transfected with a CREB renilla luciferase reporter plasmid (CRE-RLuc). This plasmid expresses renilla luciferase under the control of three tandem copies of CRE in the promoter region.\nInhibition of CREB-mediated gene transcription. HEK 293T cells were transfected with CRE-RLuc. Then the cells were treated with increasing concentrations of individual compounds (FIG. 2A) or drug combinations (FIG. 2B) for 30 min before the addition of Fsk (10 μM) for 5 h. The renilla luciferase activity was normalized to the protein concentration in each well and expressed as relative luciferase unit (RLU)/μg protein. The errors are SEM from one representative experiment in triplicate.\nHEK293T cells in a well of 6-well plate were transfected with a plasmid (1 μg) encoding renilla luciferase under the control of three copies of CRE (pCRE-RLuc) using Lipofectamin^2000 (Life Technologies) for 3 h. Then the cells were replated into a 96-well plate and the cells were allowed to attach to the bottom of the plate for overnight. The cells were treated with different concentrations of the compounds for 30 min, when Fsk (10 μM) was added to the cells. The cells were further incubated for 5 h at 37° C. The media were removed and the cells were lysed in 30 μl 1× renilla luciferase lysis buffer (Promega) and the renilla luciferase activity was measured using the renilla luciferase assay system (Promega). The protein concentration in each well was determined using the Protein Assay Dye Reagent Concentrate (Bio-rad). The luciferase activity in each well was normalized to the protein concentration and expressed as relative luciferase unit (RLU)/μg protein. The IC50 was calculated in Prism 5.0 using the non-linear regression analysis."}, "NR4A2": {"system": "NR4A2", "assay": "endogenous CREB target gene expression by qRT-PCR in HEK 293T cells", "assay_type": "cell-based", "details": "Fsk-stimulated HEK 293T cells", "description": "Then the cells were subjected to qRT-PCR analysis after the total RNA was isolated using HPRT as a reference gene.\nThen the cells were stimulated with Fsk (10 μM) for 45 min. The total RNA was isolated using NucleoSpin® RNA isolation kit (Takara Bio). Following RNA isolation, the first strand cDNA was synthesized using PrimeScript™ 1st strand cDNA synthesis kit (Takara Bio) with random hexamers as the primers. Quantitative PCR reactions were performed with TB Green® Advantage® qPCR Premix (Takara Bio). The relative mRNA level was determined with double delta Ct method using HPRT as a reference gene."}, "KIX-KID interaction": {"target": "KIX-KID interaction (Homo sapiens, UniProt Q92793)", "sequence (Q92793 587-666 limits assumed)": "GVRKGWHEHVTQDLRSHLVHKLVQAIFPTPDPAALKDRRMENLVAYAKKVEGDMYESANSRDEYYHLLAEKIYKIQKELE", "assay": "split renilla luciferase complementation assay of KIX-KID interaction", "assay_type": "cell-based"}, "[2]": {"assay": "aqueous solubility in ddH2O", "assay_type": "physicochemical", "details": "water", "excerpt": "Furthermore, we discovered a novel compound that can potentiate 666-15's inhibitory effect against CREB-mediated gene transcription in living cells.\nThe synthesis of compound 3 is presented in Scheme 1. […] Under the coupling conditions we used before (BOP, DIPEA, room temperature),^13 a mixture of compositional isomers 6 and 7 (2-(3-(3-((tert-butoxycarbonyl)amino)propoxy)-2-naphthamido)-5-chlorophenyl 3-(2-((tert-butoxy carbonyl)amino)ethoxy)-2-naphthoate) involving acyl group swapping was obtained. These two isomers were only partially separable by conventional silica gel column chromatograph. […] The formation of the unanticipated alternative ester 7 was likely a result of generation of imide intermediate 8 (2-(3-(2-((tert-butoxycarbonyl)amino)ethoxy)-2-naphthamido)-5-chloro-3-hydroxyphenyl 3-(3-((tert-butoxycarbonyl) amino)propoxy)-2-naphthoate) although it was not detected from the reaction mixture. The intermediate 8 could be generated either before the formation of 6 (2-(3-(2-((tert-butoxycarbonyl) amino)ethoxy)-2-naphthamido)-5-chlorophenyl 3-(3-((tert-butoxycarbonyl)amino) propoxy)-2-naphthoate) or after 6 was formed. Once 8 was produced, it could generate either 6 or 7 through an ester bond formation (Scheme 1). […] The Boc groups (tert-butyloxycarbonyl protecting groups) in 6 were then deprotected under acidic condition (HCl, DCM) to give 3 uneventfully. […]"}, "[3]": {"assay": "stability of stock solution in DMSO", "assay_type": "physicochemical", "details": "long-term storage of stock solution"}, "[4]": {"assay": "conversion of ester 3 in complete cell culture media (DMEM with 10% FBS), HPLC", "assay_type": "in vitro ADME", "details": "37° C.", "experimental": "With the desired compound 3 in hand, we first investigated the possibility of transformation of 3 into 666-15 in the complete cell culture media (Dulbecco's Modified Eagle Medium with 10% fetal bovine serum (FBS)). […] In stark contrast to the structural congener 2,^15 only a small amount of 666-15 was generated under the reaction condition. In order to investigate if simple ester hydrolysis was occurring to generate products 9 and 10 (FIG. 2A), we compared the main peaks eluted at 10.5 min and 11.2 min with standard samples of 9 and 10 by HPLC.\nCompound 3 (200 μM) was incubated with complete tissue culture media (DMEM with 10% FBS) at 37° C. for various time periods. An aliquot of 10 μl was taken at a given time point and mixed with acetonitrile (90 μL). The mixture was centrifuged at 14,000×rpm for 5 min at room temperature in a tabletop centrifuge to precipitate proteins. The supernatant was collected and analyzed by HPLC eluting with a linear of water and acetonitrile, both of which contained 0.1% TFA."}, "[5]": {"details": "from reference 15; cited from earlier work"}, "[6]": {"details": "HEK 293T cells, CRE-RLuc reporter, Fsk stimulated, mean ± SD of at least two independent experiments, read-out: CREB inhibition (IC50)"}}, "note": "Structures can show the parent of a compound that is named as a salt. Where two headings read alike, the source gives them in different places.", "data": [{"smiles": "NCCCOc1cc2ccccc2cc1C(=O)Nc1ccc(Cl)cc1O", "note": "[Compound 11, 3-(3-aminopropoxy)-N-(4-chloro-2-hydroxyphenyl)-2-naphthamide]", "values": [{"measurement": "combination index (CI) of anti-proliferative effect", "setting": "MDA-MB-231 cells; 11 (0.5 or 1.0 μM) combined with 666-15, 72 h", "value": "less than 1.0"}, {"measurement": "antiproliferative effect (cell growth)", "setting": "MDA-MB-231 cells; 11 alone, 0.5 or 1.0 μM, 72 h", "value": "did not appreciably inhibit the cell growth"}, {"measurement": "combination index (CI) in inhibiting CREB-mediated gene transcription", "setting": "[1]; 11 (5 μM) combined with 666-15 0.01 μM", "value": 2.87}, {"measurement": "combination index (CI) in inhibiting CREB-mediated gene transcription", "setting": "[1]; 11 (5 μM) combined with 666-15 0.05 μM", "value": 0.31}, {"measurement": "combination index (CI) in inhibiting CREB-mediated gene transcription", "setting": "[1]; 11 (5 μM) combined with 666-15 0.1 μM", "value": 0.17}, {"measurement": "combination index (CI) in inhibiting CREB-mediated gene transcription", "setting": "[1]; 11 (5 μM) combined with 666-15 0.5 μM", "value": 0.37}, {"measurement": "combination index (CI) in inhibiting CREB-mediated gene transcription", "setting": "[1]; 11 (5 μM) combined with 666-15 1.0 μM", "value": 0.56}, {"measurement": "combination index (CI) in inhibiting CREB-mediated gene transcription", "setting": "[1]; 11 (5 μM) combined with 666-15 5.0 μM", "value": 2.41}, {"measurement": "effect of combination with 666-15 on inhibition of CREB-mediated gene transcription", "setting": "[1]; HEK 293T cells", "value": "significantly potentiated activity of 666-15"}, {"measurement": "IC50", "setting": "[1]; [6]", "value": "26.3 ± 13.6", "unit": "µM"}, {"measurement": "expression level of NR4A2", "setting": "NR4A2; 666-15 (50 nM) combined with compound 11 (5 μM)", "value": "significant inhibition of NR4A2 transcription was observed"}, {"measurement": "expression level of NR4A2", "setting": "NR4A2; compound 11 alone, 5 μM", "value": "did not inhibit the expression of NR4A2"}, {"measurement": "IC50", "setting": "KIX-KID interaction", "value": "> 50", "unit": "µM"}]}, {"smiles": "NCCCOc1cc2ccccc2cc1C(=O)NCCOc1cc2ccccc2cc1C(=O)Nc1ccc(Cl)cc1O", "note": "[Compound 666-15, 3-(3-aminopropoxy)-N-(2-((3-((4-chloro-2-hydroxyphenyl)carbamoyl)naphthalen-2-yl)oxy)ethyl)-2-naphthamide]", "values": [{"measurement": "solubility", "setting": "[2]", "value": "< 0.5", "unit": "mg/mL"}]}, {"smiles": "O=C1NCCOc2cc3ccccc3cc21", "note": "[Compound 12, 3,4-dihydronaphtho[2,3-f][1,4]oxazepin-5(2H)-one]", "values": [{"measurement": "CREB inhibition potency", "setting": "[1]; HEK 293T cells, compound alone", "value": "inactive"}, {"measurement": "effect of combination with 666-15 on inhibition of CREB-mediated gene transcription", "setting": "[1]; HEK 293T cells", "value": "did not produce further inhibition of CREB-mediated gene transcription"}, {"measurement": "IC50", "setting": "[1]; [6]", "value": "> 50", "unit": "µM"}, {"measurement": "melting point", "value": "128 to 129", "unit": "°C"}]}, {"smiles": "NCCCOc1cc2ccccc2cc1C(=O)Oc1cc(Cl)ccc1NC(=O)c1cc2ccccc2cc1OCCN", "note": "[Compound 3, 2-(3-(2-Aminoethoxy)-2-naphthamido)-5-chlorophenyl 3-(3-Aminopropoxy)-2-naphthoate Dihydrochloride]", "values": [{"measurement": "stability in DMSO", "setting": "[3]", "value": "unstable in DMSO for long-term storage"}, {"measurement": "conversion in complete cell culture media", "setting": "[4]", "value": "rapidly converted into four new product peaks"}, {"measurement": "IC50", "setting": "[1]; HEK-293T, read-out: CREB inhibition (IC50, μM)", "value": "0.25 ± 0.11", "unit": "µM"}, {"measurement": "solubility", "setting": "[2]", "value": "> 100", "unit": "mg/mL"}]}, {"smiles": "NCCCOc1cc2ccccc2cc1C(=O)Nc1ccc(Cl)cc1OC(=O)c1cc2ccccc2cc1OCCCN", "note": "[Compound 2, 2-(3-(3-aminopropoxy)-2-naphthamido)-5-chlorophenyl 3-(3-aminopropoxy)-2-naphthoate]", "values": [{"measurement": "aqueous solubility in ddH2O", "setting": "[5]", "value": "> 100", "unit": "mg/mL"}]}, {"smiles": "NCCCOc1cc2ccccc2cc1C(=O)Oc1cc(Cl)ccc1NC(=O)c1cc2ccccc2cc1OCCN", "note": "(as salt: hydrochloride) [Compound 3, 2-(3-(2-Aminoethoxy)-2-naphthamido)-5-chlorophenyl 3-(3-Aminopropoxy)-2-naphthoate Dihydrochloride]", "values": [{"measurement": "melting point", "value": "216 to 217", "unit": "°C"}]}]}
